Earlier results on two compounds are cited in patent publication US20140135284A1, “COMPOSITION OF AQUEOUS BUFFER SOLUTION FOR THE TREATMENT OF CELLULAR ENVIRONMENT AND ION CHANNELS AND METHODS FOR USING SAME” (priority 2007, published 2014).

SMILES strings stand for the structures.

The subject of the data set is inflammation. To be noted: acid species studied, small reductions in pH.

For the compound `Cl` [Hydrochloric acid], the effect on inflammation result is “upregulated inflammation”.
With `CC(O)C(=O)O` (centres unmarked) [Lactic acid], the effect on inflammation result is reported as “effective anti-inflammatory”.
